US6335339B1, “Triazine antiviral compounds” (Scriptgen Pharmaceuticals, Inc., priority 1998, dated 2002)

Columns and labels:
[1] = tested on: HBV εRNA; assay: εRNA/oligonucleotide hybridization inhibition assay with rRNA competitor; assay type: binding, Hepatitis B virus; settings: for IC50: radiolabeled εRNA, 60-fold excess rRNA competitor; for Specificity: ratio RRE+rRNA IC50/εRNA+rRNA IC50, max = inactive in RRE assay
Source text: One assay used in determining the activity of the compounds of the present invention is disclosed in copending U.S. patent application Ser. No. 08/709,342, filed Sep. 6, 1996, the disclosure of which is hereby incorporated herein by reference in its entirety. The assay detects the interaction between target RNA molecule and a test ligand by measuring the ligand's ability to inhibit hybridization between the RNA and a specific complementary oligonucleotide. In one embodiment, the target RNA is radiolabelled and the oligonucleotide is labeled with biotin; in this case, the extent of hybridization is determined by measuring the amount of radiolabeled RNA detected with a streptavidin/biotin-based capture system.
Concentrations of test compounds of between about 0.1 μM and about 200 μM are assayed for inhibition using radiolabeled εRNA in the absence or presence of a large excess of an unlabeled non-specific RNA competitor (such as, e.g., ribosomal RNA, rRNA). Compounds that bind εRNA non-specifically are competitively displaced by the rRNA, resulting in reduced or no inhibition of hybridization between the radiolabeled εRNA and the biotinylated oligonucleotide. Conversely, the inhibitory activity of compounds that specifically bind εRNA is not affected by the presence of the competitor rRNA.
The high throughput assays were performed in 96-well plates containing eighty drugs (5 μl, 60 μg/ml in DMSO) distributed one per well in columns 2-6 and 8-12 of the 8×12 96-well array. The remaining 16 wells in columns 1 and 7 were filled with 5 μl DMSO to serve as the control reactions. 45 μl of reaction mixture containing buffer, salts and radiolabeled target RNA were delivered on each well of the compound-containing plates to yield a 50 μl mixture containing 50 mM Tris-HCl, pH 7.5, 200 mM KCl, 5 mM MgCl2, 5 mM DTT, 6 μg/ml test compound, and 25 nM [^32 P]-labeled εRNA. The reaction was started by addition of the biotinylated oligonucleotide, 262.104 A (5 μl) to a final concentration of 100 nM. The reaction was incubated at 25° C. for 60 minutes, and then 5 μl of 0.3 mg/ml SAAP (streptavidin alkaline phosphatase conjugate, Pierce, Rockford, Ill.) was added. The reaction was incubated for an additional 30 minutes at 25° C. and filtered through 96-well format HATF nitrocellulose filters (Millipore, Bedford, Mass.) using a multiscreen vacuum manifold (Millipore, Bedford, Mass.). Subsequently, 300 μl of wash buffer (50 mM Tris-HCl, pH 7.5, 200 mM KCl) was filtered through to wash the filters. The filters were dried and supplemented with 20 μl scintillation fluid (Super Mix, Wallac Oy, Turku, Finland). The amount of hybrids formed was determined by scintillation counting of the radiolabeled εRNA retained on the filters.
The inhibitory effect of a test compound (expressed as percentage of inhibition, % Inh.) was calculated using the following formula: […]
where Ro is the average retention of hybrids in the 16 identical control reactions in columns 1 and 7 and Rx is the hybrids retained in the presence of a test drug, x.
(§1) Biotinylated oligonucleotides 262.104 A (5′-biotin-TTAGGCACAGCTTGGAGGCTTGAACAGTG-3′) and 208.92 A (5′-biotin-CGTCATTGACGCTGCGCCCA-3′) were synthetically prepared (Oligos Etc., Willsonville, Oreg.). These oligonucleotides are complementary to regions of the εRNA and RRE RNA targets, respectively.
A plasmid containing the target sequence following the bacteriophage SP6 promoter was used as a template for the synthesis of radiolabeled εRNA using [α^32 P]-UTP and SP6 RNA polymerase as described by the suppliers, e.g., Ambion, Austin, Tex., and by methods well known to those of ordinary skill in the art.
Compounds that inhibited the primary screening assay described above were individually titrated in the same assay at concentrations between 0.1 μM and 200 μM in the absence and presence of 60-fold excess rRNA as a non-specific competitor. […]

[2] = tested on: HIV derived RRE RNA; assay: heterologous hybridization inhibition assay with RRE RNA; assay type: binding; settings: radiolabeled RRE RNA, rRNA competitor
Source text: Specificity is further tested in a third assay in which the radiolabeled RNA is the HIV derived RRE RNA and the biotinylated oligonucleotide is complementary to RRE. Compounds with high specific activity for εRNA are not expected to be inhibitory in the RRE RNA based assay. The specificity of the ligand for εRNA is expressed as the ratio between the IC50 value obtained with the specific target RNA and the IC50 value obtained with a heterologous target (RRE RNA), both in the presence of competitor RNA.
as §1
Compounds that inhibited the primary screening assay described above were individually titrated in the same assay at concentrations between 0.1 μM and 200 μM in the absence and presence of 60-fold excess rRNA as a non-specific competitor. A third titration was performed in a heterologous assay using radiolabeled RRE RNA as the target and the complementary biotinylated oligonucleotide 208.92 A. From these three assays, the IC50 values and specificity for each compound was calculated.
IC50 values using rRNA competitor (from Example 1) and radiolabeled RRE RNA are shown in Table 1 for the following ligands. […] Specificity is calculated as the ratio of RRE+rRNA IC50/εRNA+rRNA IC50.

With `O=[N+]([O-])c1ccc(Nc2nc(NN=CC(Br)=Cc3ccccc3)nc(Nc3ccccc3)n2)cc1` [Compound 17] the IC50 [1] was 15.1 µM, the Specificity [1] was “max” and the “RRE + rRNA IC50 (μM)” value [2] was “inactive”.

In the case of `CCCCN(CCCC)c1nc(NN=Cc2ccc(O)c(O)c2)nc(Nc2ccc([N+](=O)[O-])cc2)n1` [Compound 26], the IC50 [1] is reported as 15 µM, the Specificity [1] is reported as “max” and the “RRE + rRNA IC50 (μM)” value [2] is reported as “inactive”.

`CCCCN(CCCC)c1nc(N/N=C/C(C)=C/c2ccccc2)nc(Nc2ccc([N+](=O)[O-])cc2)n1` [Compound 31] was tested, and the IC50 [1] was 30 µM, the Specificity [1] was “max” and the “RRE + rRNA IC50 (μM)” value [2] was “inactive”.

For `Nc1cccc(Nc2nc(Nc3cccc(N)c3)nc(N(c3ccccc3)c3ccccc3)n2)c1` [Compound 32], the IC50 [1] was 32.6 µM, the Specificity [1] was “max” and the “RRE + rRNA IC50 (μM)” value [2] was “inactive”.

Molecule `COc1ccc(Nc2nc(NN=Cc3c[nH]c4ccccc34)nc(Nc3ccccc3)n2)cc1` [Compound 36] has an IC50 [1] of 28.9 µM, a Specificity [1] of 53.8 and an IC50 [2] of 1550 µM.

In the case of `O=[N+]([O-])c1ccc(Nc2nc(NN=Cc3c4ccccc4cc4ccccc34)nc(N3CCCCC3)n2)cc1` [Compound 37], the IC50 [1] is reported as 30.1 µM, the Specificity [1] is reported as “max” and the “RRE + rRNA IC50 (μM)” value [2] is reported as “inactive”.

For `O=[N+]([O-])c1ccc(Nc2nc(NN=Cc3cccc(Br)c3)nc(N3CCCCCC3)n2)cc1` [Compound 45], the IC50 [1] was 39.9 µM, the Specificity [1] was “max” and the “RRE + rRNA IC50 (μM)” value [2] was “inactive”.

In the case of `O=[N+]([O-])c1ccc(Nc2nc(NN=Cc3ccc(-c4ccc([N+](=O)[O-])cc4)o3)nc(N3CCCC3)n2)cc1` [Compound 47], the IC50 [1] is reported as 25 µM, the Specificity [1] is reported as “max” and the “RRE + rRNA IC50 (μM)” value [2] is reported as “inactive”.

For `O=[N+]([O-])c1ccc(Nc2nc(NN=Cc3ccccc3F)nc(N3CCCCCC3)n2)cc1` [Compound 48], the IC50 [1] was 30 µM, the Specificity [1] was “max” and the “RRE + rRNA IC50 (μM)” value [2] was “inactive”.

`COc1ccc([N+](=O)[O-])cc1C=NNc1nc(NCc2ccccc2)nc(Nc2ccccc2)n1` [Compound 54] was tested, and the IC50 [1] was 89.9 µM, the Specificity [1] was “max” and the “RRE + rRNA IC50 (μM)” value [2] was “inactive”.

For `CCCCN(CCCC)c1nc(N/N=C/c2c3ccccc3cc3ccccc23)nc(Nc2ccc([N+](=O)[O-])cc2)n1` [Compound 55], the IC50 [1] was 100 µM, the Specificity [1] was “max” and the “RRE + rRNA IC50 (μM)” value [2] was “inactive”.

In the case of `O=[N+]([O-])c1ccc(Nc2nc(NN=Cc3ccc(Cl)c(Cl)c3)nc(N3CCCCC3)n2)cc1` [Compound 57], the IC50 [1] is reported as 50.1 µM, the Specificity [1] is reported as “max” and the “RRE + rRNA IC50 (μM)” value [2] is reported as “inactive”.

With `Cc1ccc(Nc2nc(NN=Cc3ccc(Br)cc3)nc(Nc3ccccc3)n2)c(C)c1` [Compound 59] the IC50 [1] was 90.1 µM, the Specificity [1] was “max” and the “RRE + rRNA IC50 (μM)” value [2] was “inactive”.

`CCCCN(CCCC)c1nc(NN=Cc2c(C)[nH]c3ccccc23)nc(Nc2ccc([N+](=O)[O-])cc2)n1` [Compound 60] was tested, and the IC50 [1] was 100 µM, the Specificity [1] was “max” and the “RRE + rRNA IC50 (μM)” value [2] was “inactive”.

For `O=[N+]([O-])c1cccc(C=NNc2nc(Nc3cccc4ccccc34)nc(N3CCOCC3)n2)c1O` [Compound 64], the IC50 [1] was 71.9 µM, the Specificity [1] was “max” and the “RRE + rRNA IC50 (μM)” value [2] was “inactive”.

In the case of `Cc1ccc(C=NNc2nc(Nc3ccccc3)nc(Nc3ccc([N+](=O)[O-])cc3)n2)cc1` [Compound 66], the IC50 [1] is reported as 114 µM, the Specificity [1] is reported as “max” and the “RRE + rRNA IC50 (μM)” value [2] is reported as “inactive”.

With `O=[N+]([O-])c1ccc(Nc2nc(NN=Cc3ccc(-c4ccc([N+](=O)[O-])cc4)o3)nc(N3CCOCC3)n2)cc1` [Compound 69] the IC50 [1] was 70 µM, the Specificity [1] was “max” and the “RRE + rRNA IC50 (μM)” value [2] was “inactive”.

`Brc1cc2c(cc1C=NNc1nc(Nc3ccccc3)nc(N3CCCCC3)n1)OCO2` [Compound 70] was tested, and the IC50 [1] was 80.6 µM, the Specificity [1] was “max” and the “RRE + rRNA IC50 (μM)” value [2] was “inactive”.

For `Fc1ccc(Nc2nc(Nc3cccc(C(F)(F)F)c3)nc(N3CCOCC3)n2)cc1` [Compound 71], the IC50 [1] was 99.9 µM, the Specificity [1] was “max” and the “RRE + rRNA IC50 (μM)” value [2] was “inactive”.

`CCCCN(CCCC)c1nc(NN=Cc2cc(Br)cc(Br)c2OC)nc(Nc2ccc([N+](=O)[O-])cc2)n1` [Compound 72] was tested, and the IC50 [1] was 120 µM, the Specificity [1] was “max” and the “RRE + rRNA IC50 (μM)” value [2] was “inactive”.

In the case of `Clc1ccccc1C=NNc1nc(Nc2ccccc2)nc(N2CCOCC2)n1` [Compound 73], the IC50 [1] is reported as 120 µM, the Specificity [1] is reported as “max” and the “RRE + rRNA IC50 (μM)” value [2] is reported as “inactive”.

`COc1ccc(/C=N/Nc2nc(Nc3ccc([N+](=O)[O-])cc3)nc(N3CCOCC3)n2)cc1` [Compound 75] was tested, and the IC50 [1] was 160 µM, the Specificity [1] was “max” and the “RRE + rRNA IC50 (μM)” value [2] was “inactive”.

`Cc1ccc(Nc2nc(NN=Cc3ccc(-c4cccc(C(=O)O)c4)o3)nc(Nc3ccc([N+](=O)[O-])cc3)n2)cc1C` [Compound 76] was tested, and the IC50 [1] was 200 µM, the Specificity [1] was “max” and the “RRE + rRNA IC50 (μM)” value [2] was “inactive”.

With `O=[N+]([O-])c1ccc(Nc2nc(NN=Cc3cccc(F)c3)nc(N3CCCCCC3)n2)cc1` [Compound 78] the IC50 [1] was 133 µM, the Specificity [1] was “max” and the “RRE + rRNA IC50 (μM)” value [2] was “inactive”.

`C(=N\Nc1nc(Nc2ccccc2)nc(N2CCOCC2)n1)/c1c[nH]c2ccccc12` [Compound 79] was tested, and the IC50 [1] was 169 µM, the Specificity [1] was “max” and the “RRE + rRNA IC50 (μM)” value [2] was “inactive”.

With `O=[N+]([O-])c1ccc(Nc2nc(N/N=C/c3ccccc3)nc(N3CCCCCC3)n2)cc1` [Compound 80] the IC50 [1] was 200 µM, the Specificity [1] was “max” and the “RRE + rRNA IC50 (μM)” value [2] was “inactive”.

In the case of `Cc1ccc(Nc2nc(NN=Cc3ccc(O)cc3)nc(Nc3ccccc3)n2)c(C)c1` [Compound 81], the IC50 [1] is reported as 120 µM, the Specificity [1] is reported as “max” and the “RRE + rRNA IC50 (μM)” value [2] is reported as “inactive”.

`CCCCN(CCCC)c1nc(NN=C(C)c2ccc([N+](=O)[O-])cc2)nc(Nc2ccc([N+](=O)[O-])cc2)n1` [Compound 82] was tested, and the IC50 [1] was 150 µM, the Specificity [1] was “max” and the “RRE + rRNA IC50 (μM)” value [2] was “inactive”.

For `CCCCN(CCCC)c1nc(NN=Cc2cccc(Br)c2)nc(Nc2ccc([N+](=O)[O-])cc2)n1` [Compound 83], the IC50 [1] was 185 µM, the Specificity [1] was “max” and the “RRE + rRNA IC50 (μM)” value [2] was “inactive”.

For `C(=NNc1nc(NCc2ccccc2)nc(Nc2ccccc2)n1)c1ccccc1` [Compound 84], the IC50 [1] was 120 µM, the Specificity [1] was “max” and the “RRE + rRNA IC50 (μM)” value [2] was “inactive”.

For `CCCCN(CCCC)c1nc(NN=Cc2ccccc2OC)nc(Nc2ccc([N+](=O)[O-])cc2)n1` [Compound 86], the IC50 [1] was 200 µM, the Specificity [1] was “max” and the “RRE + rRNA IC50 (μM)” value [2] was “inactive”.

In the case of `O=[N+]([O-])c1ccc(Nc2nc(NN=Cc3c[nH]c4ccccc34)nc(N3CCCCCC3)n2)cc1` [Compound 87], the IC50 [1] is reported as 8.1 µM, the Specificity [1] is reported as 37.0 and the IC50 [2] is reported as 300 µM.
